Measurements reported in ChEMBL document CHEMBL1201862, “PubChem BioAssay data set” (2004).
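Grown in 96-well plates, cells were treated for 48 hours with each compound at five concentrations. Insufficient inhibition: endpoint recorded as highest concentration tested. Here, GI50 denotes the concentration required for 50% inhibition of growth.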 Calls of active or inactive are those of the source. Cut-off read from the data, not from the text of the source: active = GI50 up to about 1.1 µM and inactive = higher.

How the values were obtained:
Experiment in all cases: growth of human tumour cells (NCI), 48 h
A549 = test system: A549
COLO 205 = test system: COLO 205
HT-29 = test system: HT-29
IGROV-1 = test system: IGROV-1
K562 = test system: K562
KM12 = test system: KM12
NCI-H23 = test system: NCI-H23
NCI-H460 = test system: NCI-H460
OVCAR-8 = test system: OVCAR-8
SF-295 = test system: SF-295
SF-539 = test system: SF-539
SK-MEL-28 = test system: SK-MEL-28
SK-MEL-5 = test system: SK-MEL-5
SNB-75 = test system: SNB-75
SNB-78 = test system: SNB-78
SR = test system: SR
SW-620 = test system: SW-620
U-251 = test system: U-251
UACC-257 = test system: UACC-257
UO-31 = test system: UO-31

Measured: GI50

COCCOCC(=O)N(CCn1ccc(NC(c2ccccc2)(c2ccccc2)c2ccccc2)nc1=O)CCn1cnc2nc(N)[nH]c(=O)c21
inactive: A549 > 100 µM | COLO 205 > 100 µM | HT-29 > 100 µM | IGROV-1 > 100 µM | K562 > 100 µM | KM12 > 100 µM | NCI-H23 > 100 µM | NCI-H460 > 100 µM | OVCAR-8 > 100 µM | SF-295 > 100 µM | SF-539 > 100 µM | SK-MEL-28 > 100 µM | SK-MEL-5 > 100 µM | SNB-75 > 100 µM | SNB-78 > 100 µM | SR > 100 µM | SW-620 > 100 µM | U-251 > 100 µM | UACC-257 > 100 µM | UO-31 > 100 µM

CC1(C)C(O)C[C@@H](O)[C@@]2(C)C1CC[C@]1(C)C2C[C@@H](O)[C@@H]2C([C@@]3(C)CC[C@@H](C(C)(C)O)O3)CCC21C (stereo not given in full)
inactive: A549 18.9 µM | COLO 205 16.4 µM | HT-29 17.6 µM | IGROV-1 14.5 µM | K562 35.2 µM | KM12 15.9 µM | NCI-H23 17.4 µM | NCI-H460 18.9 µM | OVCAR-8 18.7 µM | SF-295 15.7 µM | SF-539 14.2 µM | SK-MEL-28 13.8 µM | SK-MEL-5 10.4 µM | SNB-75 15 µM | SNB-78 21.3 µM | SR 8.83 µM | SW-620 16.5 µM | U-251 12.9 µM | UACC-257 21 µM | UO-31 17.5 µM
